This experiment concerns the target PD-L1 His protein / PD-1 Fc protein (Homo sapiens, UniProt Q9NZQ7). In words: HTRF Assay (PD-1/PD-L1 interaction). As to conditions: PD-L1 His 6 nM, PD-1 Fc 6 nM. The class given is binding. Summed up:
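Compounds tested from 20 μM down to 0.001 μM (3-fold) against 6 nM PD-L1 His and 6 nM PD-1 Fc, 15 min room temperature incubation. Detection after 1 h at room temperature with Tb cryptate anti-6HIS and XL665 anti-human IgG reagents (mixture at 0.35 nM and 6.7 nM), HTRF signal.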
In general terms: TR-FRET usually uses a lanthanide donor and a delayed reading to cut background.
Chain of PD-L1 His protein / PD-1 Fc protein (Q9NZQ7 19-238 limits assumed): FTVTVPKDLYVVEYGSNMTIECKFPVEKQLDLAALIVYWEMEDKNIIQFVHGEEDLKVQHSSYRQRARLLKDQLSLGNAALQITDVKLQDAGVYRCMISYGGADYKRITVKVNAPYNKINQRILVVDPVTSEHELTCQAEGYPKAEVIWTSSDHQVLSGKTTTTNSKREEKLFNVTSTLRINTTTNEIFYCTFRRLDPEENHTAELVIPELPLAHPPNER
As for `COc1nc(-c2cccc(-c3cccc(-c4ccn5c(=O)c(CNC[C@@H]6CCC(=O)N6)cnc5c4)c3Cl)c2C(F)(F)F)ccc1CNC[C@@H]1CCC(=O)N1` [Example 95, 8-(2-Chloro-3′-(6-methoxy-5-(((((S)-5-oxopyrrolidin-2-yl)methyl)amino)methyl)pyridin-2-yl)-2′-(trifluoromethyl)-[1,1′-biphenyl]-3-yl)-3-(((((S)-5-oxopyrrolidin-2-yl)methyl)amino)methyl)-4H-pyrido[1,2-a]pyrimidin-4-one], half-maximal inhibition (IC50) required 23 nM.

In the case of `COc1nc(-c2cccc(-c3cccc(-c4ccn5c(=O)c(CNCCO)cnc5c4)c3Cl)c2Cl)cc(Cl)c1CNC[C@@H]1CCC(=O)N1` [Example 378, (S)-8-(2,2′-Dichloro-3′-(4-chloro-6-methoxy-5-((((5-oxopyrrolidin-2-yl)methyl)amino)methyl)pyridin-2-yl)-[1,1′-biphenyl]-3-yl)-3-(((2-hydroxyethyl)amino)methyl)-4H-pyrido[1,2-a]pyrimidin-4-one], 110 nM corresponded to half-maximal inhibition (IC50).

Regarding `COc1nc(-c2cccc(-c3cccc(-c4cc5c(=O)n(C)c(CNCCO)nn5c4)c3Cl)c2Cl)ccc1CNC[C@@H]1CCC(=O)N1` [Example 351, (S)-6-(2,2′-Dichloro-3′-(6-methoxy-5-((((5-oxopyrrolidin-2-yl)methyl)amino)methyl)pyridin-2-yl)-[1,1′-biphenyl]-3-yl)-2-(((2-hydroxyethyl)amino)methyl)-3-methylpyrrolo[2,1-f][1,2,4]triazin-4(3H)-one], the IC50 (as a rule, the midpoint of a concentration-inhibition curve) was 200 nM.

For `COc1nc(-c2cccc(-c3cccc(-c4nnc5n4CCN(CCO)C5)c3Cl)c2Cl)ccc1CNC[C@@H]1CCC(=O)N1` [Example 242, (S)-5-((((6-(2,2′-Dichloro-3′-(7-(2-hydroxyethyl)-5,6,7,8-tetrahydro-[1,2,4]triazolo[4,3-a]pyrazin-3-yl)-[1,1′-biphenyl]-3-yl)-2-methoxypyridin-3-yl)methyl)amino)methyl)pyrrolidin-2-one], the IC50 was found to be 1700 nM.

`COc1nc(-c2cccc(-c3cccc(-c4cc5c(=O)n(C)c(CN6CC(C)(O)C6)nn5c4)c3Cl)c2Cl)ccc1CNC[C@@H]1CCC(=O)N1` [Example 469, 6-[2-Chloro-3-[2-chloro-3-[6-methoxy-5-[[[(2S)-5-oxopyrrolidin-2-yl]methylamino]methyl]-2-pyridyl]phenyl]phenyl]-2-[(3-hydroxy-3-methyl-azetidin-1-yl)methyl]-3-methyl-pyrrolo[2,1-f][1,2,4]triazin-4-one] came in with an IC50 of 5.9 nM. This IC50 is about 290-fold lower than that of the molecule before.

Turning to `COc1nc(-c2cccc(-c3cccc(-c4ccn5c(=O)c(CN[C@H]6C[C@](C)(O)C6)cnc5c4)c3Cl)c2Cl)ccc1CNC[C@@H]1CCC(=O)N1` [Example 143, 8-(2,2′-Dichloro-3′-(6-methoxy-5-(((((S)-5-oxopyrrolidin-2-yl)methyl)amino)methyl)pyridin-2-yl)-[1,1′-biphenyl]-3-yl)-3-((((1r,3r)-3-hydroxy-3-methylcyclobutyl)amino)methyl)-4H-pyrido[1,2-a]pyrimidin-4-one], half-maximal inhibition (IC50) required 1.8 nM.

`COc1nc(-c2cccc(-c3cccc(-c4ccn5c(=O)c(CNCCn6cnnc6)cnc5c4)c3Cl)c2Cl)ccc1CNC[C@@H]1CCC(=O)N1` [Example 216, 8-[2-Chloro-3-[2-chloro-3-[6-methoxy-5-[[[(2S)-5-oxopyrrolidin-2-yl]methylamino]methyl]-2-pyridyl]phenyl]phenyl]-3-[[2-(1,2,4-triazol-4-yl)ethylamino]methyl]pyrido[1,2-a]pyrimidin-4-one] had an IC50 of 0.1 nM. Against the preceding molecule, the IC50 is about 18-fold lower.

The molecule `CNC(=O)C1(NCc2cc(=O)n3ccc(-c4cccc(-c5cccc(-c6ccc(CNC[C@@H]7CCC(=O)N7)c(OC)n6)c5Cl)c4Cl)cc3n2)CC1` [Example 349, (S)-1-(((8-(2,2′-Dichloro-3′-(6-methoxy-5-((((5-oxopyrrolidin-2-yl)methyl)amino)methyl)pyridin-2-yl)-[1,1′-biphenyl]-3-yl)-4-oxo-4H-pyrido[1,2-a]pyrimidin-2-yl)methyl)amino)-N-methylcyclopropanecarboxamide] gave an IC50 of 0.2 nM. This IC50 is about 2-fold higher than that of the molecule before.
